In brackets after ≈: the same amount, converted by molar mass.
How the values were obtained:
Staphylococcus aureus [1] = experiment: Antibacterial activity against Staphylococcus aureus ATCC 43300 by XTT dye based assay; format: functional
Staphylococcus aureus [2] = experiment: Antibacterial activity against Staphylococcus aureus ATCC 33591 by XTT dye based assay; format: functional
Staphylococcus aureus [3] = experiment: Antibacterial activity against Staphylococcus aureus ATCC 25923 by XTT dye based assay; format: functional
Staphylococcus aureus [4] = experiment: Antibacterial activity against Staphylococcus aureus ATCC 29213 by XTT dye based assay; format: functional
Enterococcus faecalis = experiment: microbe, parasite or virus in culture; format: functional; conditions: ATCC 51299
Description: Antibacterial activity against Enterococcus faecalis ATCC 51299 by XTT dye based assay

Enterococcus faecium = experiment: Antibacterial activity against Enterococcus faecium ATCC 35667 by XTT dye based assay; format: functional
Escherichia coli = experiment: microbe, parasite or virus in culture; format: functional; conditions: ATCC 25922
Description: Antibacterial activity against Escherichia coli ATCC 25922 by XTT dye based assay

SMMC-7721 = experiment: Cytotoxicity again human SMMC7721 cells by MTT method; format: cell-based

MIC (Staphylococcus aureus [1]) [µg/mL]	MIC (Staphylococcus aureus [2]) [µg/mL]	MIC (Staphylococcus aureus [3]) [µg/mL]	MIC (Staphylococcus aureus [4]) [µg/mL]	MIC (Enterococcus faecalis) [µg/mL]	MIC (Enterococcus faecium) [µg/mL]	MIC (Escherichia coli) [µg/mL]	SMILES	IC50 (SMMC-7721) [µM]
–	–	–	–	–	–	–	Cc1cccc(O)c1C1=CC2=C(Cl)C(=O)[C@@](C)(O)C(=O)C2=CO1	> 10
–	–	–	–	–	–	–	Cc1cccc(O)c1C1=CC2=CC(=O)[C@](C)(O)C(=O)C2=CO1	> 10
50 (≈ 86.9 µM)	12.5 (≈ 21.7 µM)	12.5 (≈ 21.7 µM)	25 (≈ 43.4 µM)	25 (≈ 43.4 µM)	25 (≈ 43.4 µM)	> 50	CCCCCC[C@H](C)/C=C(\C)C(=O)O[C@]1(C)C(=O)C2=COC(C3=C(C)C[C@@H](O)CC3=O)=CC2=C(Br)C1=O	> 10
–	–	–	–	–	–	–	CCCCCC[C@H](C)/C=C(\C)C(=O)O[C@@]1(C)C(=O)C=C2C=C(C3=C(C)C[C@@H](O)CC3=O)OC=C2C1=O	> 10
–	–	–	–	–	–	–	CCCCCC[C@H](C)/C=C(\C)C(=O)O[C@@]1(C)C(=O)C=C2C=C(c3c(C)cccc3O)OC=C2C1=O	> 10
12.5 (≈ 22.4 µM)	3.13 (≈ 5.61 µM)	6.25 (≈ 11.2 µM)	12.5 (≈ 22.4 µM)	3.13 (≈ 5.61 µM)	12.5 (≈ 22.4 µM)	> 50	CCCCCC[C@H](C)/C=C(\C)C(=O)O[C@]1(C)C(=O)C2=COC(c3c(C)cccc3O)=CC2=C(Br)C1=O	> 10
25 (≈ 126 µM)	25 (≈ 126 µM)	> 50	> 50	> 50	> 50	> 50	CCCCCC[C@H](C)/C=C(\C)C(=O)O	–
–	–	–	–	–	–	–	CCCCCC[C@H](C)/C=C(\C)C(=O)O[C@@]1(C)C(=O)C2=COC(c3c(C)cccc3O)=CC2=C(Cl)C1=O	> 10
12.5 (≈ 24.2 µM)	3.13 (≈ 6.06 µM)	> 50	12.5 (≈ 24.2 µM)	12.5 (≈ 24.2 µM)	25 (≈ 48.4 µM)	> 50	CCCCCC[C@H](C)/C=C(\C)C(=O)O[C@@]1(C)C(=O)c2c(cc(O)c3c2C[C@H](O)C[C@]3(C)O)[C@](C)(O)C1=O	–
–	–	–	–	–	–	–	CCCCCC[C@H](C)/C=C(\C)C(=O)O[C@@]1(C)C(=O)C2=COC(C3=C(C)CC(O)CC3=O)=CC2=C(Cl)C1=O (some centres not stated)	> 10
> 50	> 50	> 50	> 50	> 50	> 50	> 50	CCCCCC[C@H](C)/C=C(\C)C(=O)O[C@@]1(C)C(=O)c2c(cc(O)c3c(C)cccc23)[C@](C)(O)C1=O	–

SMILES	MIC (Staphylococcus aureus [1]) [µg/mL]	MIC (Staphylococcus aureus [2]) [µg/mL]	MIC (Staphylococcus aureus [3]) [µg/mL]	MIC (Staphylococcus aureus [4]) [µg/mL]	MIC (Enterococcus faecalis) [µg/mL]	MIC (Enterococcus faecium) [µg/mL]	MIC (Escherichia coli) [µg/mL]	IC50 (SMMC-7721) [µM]
CN[C@H](CC(C)C)C(=O)N[C@H]1C(=O)N[C@@H](CC(N)=O)C(=O)N[C@H]2C(=O)N[C@H]3C(=O)N[C@H](C(=O)N[C@H](C(=O)O)c4cc(O)cc(O)c4-c4cc3ccc4O)[C@H](O)c3ccc(c(Cl)c3)Oc3cc2cc(c3O[C@@H]2O[C@H](CO)[C@@H](O)[C@H](O)[C@H]2O[C@H]2C[C@](C)(N)[C@H](O)[C@H](C)O2)Oc2ccc(cc2Cl)[C@H]1O.Cl [VANCOMYCIN HYDROCHLORIDE]	0.78	1.56	0.78	0.78	> 50	0.78	> 50	–
Cc1onc(-c2ccccc2)c1C(=O)N[C@@H]1C(=O)N2[C@@H]1SC(C)(C)[C@@H]2C(=O)[O-].[Na+]	> 50	> 50	0.2	0.39	> 50	> 50	> 50	–

Reference: ChEMBL document CHEMBL4330155, “NaBr-Induced Production of Brominated Azaphilones and Related Tricyclic Polyketides by the Marine-Derived Fungus Penicillium janthinellum HK1-6” (J Nat Prod, 2019)
